Test results taken from PubChem BioAssay AID2060491 (Molecular Pharmacology Branch, DTP, NCI, 2025).

System: 857933-349-R-J2-PDC complex spheroids, viability
Experiment: Anticancer human tumor 857933-349-R-J2-PDC patient-derived colon adenocarcinoma cell line growth inhibition [GQUAD]
Conditions: for IC50: curve of first compound; for viability, T/C: stronger effect = lower value
Outline: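 Tumor cells were grown as complex spheroids with HUVEC endothelial cells and mesenchymal stem cells as stroma. G-quadruplex stabilizers were combined with targeted agents over half-log dilutions from near the clinical Cmax, or from 10 microM.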

[1] = second compound 0.0316 µM, first compound 0.0316 µM
[2] = second compound 0.0316 µM, first compound 0.1 µM
[3] = second compound 0.0316 µM, first compound 0.316 µM
[4] = second compound 0.0316 µM, first compound 1 µM
[5] = second compound 0.0316 µM, first compound 3.16 µM
[6] = second compound 0.0316 µM, first compound 10 µM
[7] = second compound 0.1 µM, first compound 0.0316 µM
[8] = second compound 0.1 µM, first compound 0.1 µM
[9] = second compound 0.1 µM, first compound 0.316 µM
[10] = second compound 0.1 µM, first compound 1 µM
[11] = second compound 0.1 µM, first compound 3.16 µM
[12] = second compound 0.1 µM, first compound 10 µM
[13] = second compound 0.316 µM, first compound 0.0316 µM
[14] = second compound 0.316 µM, first compound 0.1 µM
[15] = second compound 0.316 µM, first compound 0.316 µM
[16] = second compound 0.316 µM, first compound 1 µM
[17] = second compound 0.316 µM, first compound 3.16 µM
[18] = second compound 0.316 µM, first compound 10 µM
[19] = second compound 1 µM, first compound 0.0316 µM
[20] = second compound 1 µM, first compound 0.1 µM
[21] = second compound 1 µM, first compound 0.316 µM
[22] = second compound 1 µM, first compound 1 µM
[23] = second compound 1 µM, first compound 3.16 µM
[24] = second compound 1 µM, first compound 10 µM
[25] = second compound 3.16 µM, first compound 0.0316 µM
[26] = second compound 3.16 µM, first compound 0.1 µM
[27] = second compound 3.16 µM, first compound 0.316 µM
[28] = second compound 3.16 µM, first compound 1 µM
[29] = second compound 3.16 µM, first compound 3.16 µM
[30] = second compound 3.16 µM, first compound 10 µM
[31] = second compound 10 µM, first compound 0.0316 µM
[32] = second compound 10 µM, first compound 0.1 µM
[33] = second compound 10 µM, first compound 0.316 µM
[34] = second compound 10 µM, first compound 1 µM
[35] = second compound 10 µM, first compound 3.16 µM
[36] = second compound 10 µM, first compound 10 µM
[37] = second compound 0.0316 µM, first compound 0.000999 µM
[38] = second compound 0.0316 µM, first compound 0.00316 µM
[39] = second compound 0.0316 µM, first compound 0.00999 µM
[40] = second compound 0.0316 µM, first compound 0.0999 µM
[41] = second compound 0.1 µM, first compound 0.000999 µM
[42] = second compound 0.1 µM, first compound 0.00316 µM
[43] = second compound 0.1 µM, first compound 0.00999 µM
[44] = second compound 0.1 µM, first compound 0.0999 µM
[45] = second compound 0.316 µM, first compound 0.000999 µM
[46] = second compound 0.316 µM, first compound 0.00316 µM
[47] = second compound 0.316 µM, first compound 0.00999 µM
[48] = second compound 0.316 µM, first compound 0.0999 µM
[49] = second compound 1 µM, first compound 0.000999 µM
[50] = second compound 1 µM, first compound 0.00316 µM
[51] = second compound 1 µM, first compound 0.00999 µM
[52] = second compound 1 µM, first compound 0.0999 µM
[53] = second compound 3.16 µM, first compound 0.000999 µM
[54] = second compound 3.16 µM, first compound 0.00316 µM
[55] = second compound 3.16 µM, first compound 0.00999 µM
[56] = second compound 3.16 µM, first compound 0.0999 µM
[57] = second compound 10 µM, first compound 0.000999 µM
[58] = second compound 10 µM, first compound 0.00316 µM
[59] = second compound 10 µM, first compound 0.00999 µM
[60] = second compound 10 µM, first compound 0.0999 µM
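Also: spheroids exposed to compounds for one week before readout.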
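For viability, T/C in this document: percent viability relative to vehicle DMSO wells taken as 100%.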

C=CC(=O)N1CCN(c2nc(=O)n(-c3c(C)ccnc3C(C)C)c3nc(-c4c(O)cccc4F)c(F)cc23)C(C)C1 (stereo not drawn) + Cc1[nH]c2ccc(F)cc2c1-c1nc2c3cccnc3c3ncccc3c2[nH]1
IC50 (second compound 0.0316 µM): > 10000 nM | IC50 (second compound 0.1 µM): > 10000 nM | IC50 (second compound 0.316 µM): > 10000 nM | IC50 (second compound 1 µM): > 10000 nM | IC50 (second compound 3.16 µM): > 10000 nM | IC50 (second compound 10 µM): > 10000 nM | viability, T/C [1]: 102% | viability, T/C [2]: 106% | viability, T/C [3]: 96.7% | viability, T/C [4]: 102% | viability, T/C [5]: 109% | viability, T/C [6]: 86% | viability, T/C [7]: 98.9% | viability, T/C [8]: 101% | viability, T/C [9]: 96.5% | viability, T/C [10]: 104% | viability, T/C [11]: 103% | viability, T/C [12]: 93.4% | viability, T/C [13]: 95.1% | viability, T/C [14]: 100% | viability, T/C [15]: 101% | viability, T/C [16]: 97.4% | viability, T/C [17]: 104% | viability, T/C [18]: 89% | viability, T/C [19]: 101% | viability, T/C [20]: 106% | viability, T/C [21]: 96.3% | viability, T/C [22]: 104% | viability, T/C [23]: 108% | viability, T/C [24]: 89.2% | viability, T/C [25]: 99% | viability, T/C [26]: 110% | viability, T/C [27]: 91.3% | viability, T/C [28]: 99% | viability, T/C [29]: 104% | viability, T/C [30]: 95.3% | viability, T/C [31]: 102% | viability, T/C [32]: 98.2% | viability, T/C [33]: 88.2% | viability, T/C [34]: 92.7% | viability, T/C [35]: 99% | viability, T/C [36]: 84.7%

CC[C@@]1(O)C(=O)OCc2c1cc1n(c2=O)Cc2cc3c(CN(C)C)c(O)ccc3nc2-1 + Cc1[nH]c2ccc(F)cc2c1-c1nc2c3cccnc3c3ncccc3c2[nH]1
IC50 (second compound 0.0316 µM): 153 nM | IC50 (second compound 0.1 µM): 130 nM | IC50 (second compound 0.316 µM): 144 nM | IC50 (second compound 1 µM): 164 nM | IC50 (second compound 3.16 µM): 132 nM | IC50 (second compound 10 µM): 192 nM | viability, T/C [37]: 96.7% | viability, T/C [38]: 94.6% | viability, T/C [39]: 89.8% | viability, T/C [1]: 63.5% | viability, T/C [40]: 60.8% | viability, T/C [3]: 39.6% | viability, T/C [41]: 91.8% | viability, T/C [42]: 99.7% | viability, T/C [43]: 90.2% | viability, T/C [7]: 67.7% | viability, T/C [44]: 56.6% | viability, T/C [9]: 39.7% | viability, T/C [45]: 102% | viability, T/C [46]: 93.6% | viability, T/C [47]: 97.6% | viability, T/C [13]: 72.6% | viability, T/C [48]: 54.9% | viability, T/C [15]: 42.8% | viability, T/C [49]: 103% | viability, T/C [50]: 89.1% | viability, T/C [51]: 92.8% | viability, T/C [19]: 73.9% | viability, T/C [52]: 60.5% | viability, T/C [21]: 36.6% | viability, T/C [53]: 97.8% | viability, T/C [54]: 95.7% | viability, T/C [55]: 88.8% | viability, T/C [25]: 90.8% | viability, T/C [56]: 53.4% | viability, T/C [27]: 39.2% | viability, T/C [57]: 105% | viability, T/C [58]: 86.2% | viability, T/C [59]: 89.4% | viability, T/C [31]: 73.7% | viability, T/C [60]: 62.6% | viability, T/C [33]: 40.4%

CCc1c2c(nc3ccc(O)cc13)-c1cc3c(c(=O)n1C2)COC(=O)[C@]3(O)CC + Cc1[nH]c2ccc(F)cc2c1-c1nc2c3cccnc3c3ncccc3c2[nH]1
IC50 (second compound 0.0316 µM): 8.64 nM | IC50 (second compound 0.1 µM): 5.42 nM | IC50 (second compound 0.316 µM): 9.75 nM | IC50 (second compound 1 µM): 8.5 nM | IC50 (second compound 3.16 µM): 9.46 nM | IC50 (second compound 10 µM): 8.53 nM | viability, T/C [37]: 79.3% | viability, T/C [38]: 63% | viability, T/C [39]: 51.5% | viability, T/C [1]: 24.8% | viability, T/C [40]: 14.7% | viability, T/C [3]: 12.2% | viability, T/C [41]: 80.2% | viability, T/C [42]: 54.5% | viability, T/C [43]: 45.5% | viability, T/C [7]: 26.5% | viability, T/C [44]: 15.3% | viability, T/C [9]: 11.1% | viability, T/C [45]: 73.5% | viability, T/C [46]: 72.6% | viability, T/C [47]: 47.9% | viability, T/C [13]: 25% | viability, T/C [48]: 15.4% | viability, T/C [15]: 11.4% | viability, T/C [49]: 74.8% | viability, T/C [50]: 63.2% | viability, T/C [51]: 49.8% | viability, T/C [19]: 24.4% | viability, T/C [52]: 16.6% | viability, T/C [21]: 14.7% | viability, T/C [53]: 80.5% | viability, T/C [54]: 60.1% | viability, T/C [55]: 55.9% | viability, T/C [25]: 27.4% | viability, T/C [56]: 15.7% | viability, T/C [27]: 13% | viability, T/C [57]: 80.7% | viability, T/C [58]: 54.5% | viability, T/C [59]: 59.2% | viability, T/C [31]: 28.1% | viability, T/C [60]: 18.7% | viability, T/C [33]: 14.6%

Cc1cccc(N(C)C(=O)C2C(O)CCN2c2nc(C)cc(C(F)(F)F)c2C#N)c1 (stereo not drawn) + Cc1[nH]c2ccc(F)cc2c1-c1nc2c3cccnc3c3ncccc3c2[nH]1
IC50 (second compound 0.0316 µM): > 10000 nM | IC50 (second compound 0.1 µM): > 10000 nM | IC50 (second compound 0.316 µM): > 10000 nM | IC50 (second compound 1 µM): > 10000 nM | IC50 (second compound 3.16 µM): > 10000 nM | IC50 (second compound 10 µM): > 10000 nM | viability, T/C [1]: 101% | viability, T/C [2]: 99.1% | viability, T/C [3]: 91.6% | viability, T/C [4]: 88.2% | viability, T/C [5]: 98.3% | viability, T/C [6]: 92% | viability, T/C [7]: 95.2% | viability, T/C [8]: 98.4% | viability, T/C [9]: 98.8% | viability, T/C [10]: 97.9% | viability, T/C [11]: 102% | viability, T/C [12]: 96.7% | viability, T/C [13]: 101% | viability, T/C [14]: 104% | viability, T/C [15]: 106% | viability, T/C [16]: 102% | viability, T/C [17]: 101% | viability, T/C [18]: 110% | viability, T/C [19]: 94.9% | viability, T/C [20]: 101% | viability, T/C [21]: 102% | viability, T/C [22]: 103% | viability, T/C [23]: 110% | viability, T/C [24]: 94.7% | viability, T/C [25]: 94.6% | viability, T/C [26]: 97.4% | viability, T/C [27]: 111% | viability, T/C [28]: 100% | viability, T/C [29]: 98.5% | viability, T/C [30]: 99.7% | viability, T/C [31]: 96.1% | viability, T/C [32]: 101% | viability, T/C [33]: 93% | viability, T/C [34]: 95% | viability, T/C [35]: 97.5% | viability, T/C [36]: 88.3%
